Assay results taken from patent publication US8536225B2, “Therapeutic methods employing nitric oxide precursors” (Vanderbilt University, priority 1999, dated 2013).

How the values were obtained:
Type in all cases: in vivo, Duroc swine
[1] = Serum arginine levels after intravenous citrulline in piglets; details: citrulline 600 mg/kg IV
Method: (§1) Intravenous citrulline has not been previously used in a clinical model. This Example assessed the safety of IV citrulline and its effect on serum arginine levels in piglets. A total of 9 Duroc swine, aged 5-21 days, with a target minimum weight of 4 kg were utilized. All piglets underwent anesthetic induction and tracheostomy. Central lines were placed in the femoral artery and femoral vein and hemodynamics monitored continuously. Citrulline (600 mg/kg IV) was administered to 5 piglets. Saline was given to control animals. Serum amino acids were drawn before and each hour after citrulline administration.

[2] = Hemodynamic monitoring (mean arterial blood pressure) after IV citrulline in piglets; details: citrulline 600 mg/kg IV
Method: as §1

[3] = Pharmacokinetics of plasma citrulline and arginine after single dose of IV citrulline; details: piglets, single dose IV citrulline 600 mg/kg
Method: as §1
Pharmacokinetics: Based on the above data, the pharmacokinetics were calculated for both plasma citrulline and arginie levels after the single dose of IV citrulline. Pharmacokinetic data included plasma half-life (t½), elimination constant (Kel), volume of distribution (Vd), and plasma clearance (CLp).

Compound: NC(=O)NCCC[C@H](N)C(=O)O [Citrulline, citrulline]
- Time of peak serum arginine levels following IV citrulline administration [1]: 1 to 2 h
- Arginine Levels Following IV Citrulline, 1 hour post ([1]; 1 hour post, serum): 535.0 µmol/L
- Arginine Levels Following IV Citrulline, 2 hours post ([1]; 2 hours post, serum): 559.8 µmol/L
- Arginine Levels Following IV Citrulline, 3 hours post ([1]; 3 hours post, serum): 498.4 µmol/L
- Arginine Levels Following IV Citrulline, Baseline ([1]; baseline (before administration), serum): 131.5 µmol/L
- Mean Arterial Blood Pressures Following IV Citrulline, 1 hour post ([2]; 1 hour post): 67.4 mmHg
- Mean Arterial Blood Pressures Following IV Citrulline, 2 hours post ([2]; 2 hours post): 64.8 mmHg
- Mean Arterial Blood Pressures Following IV Citrulline, 3 hours post ([2]; 3 hours post): 62.2 mmHg
- Hemodynamic instability ([2]; hemodynamics monitored continuously): No hemodynamic instability was observed
- Mean Arterial Blood Pressures Following IV Citrulline, Pre-dose ([2]; pre-dose): 67.0 mmHg
- half-life ([3]; Duroc, pig, plasma, read-out: Plasma citrulline half-life (t½) (converted)): 1.5 h
- clearance ([3]; Duroc, pig, plasma, read-out: Plasma citrulline plasma clearance (CLp) (converted)): 17.5 mL/min
- Vd ([3]; Duroc, pig, plasma, read-out: Plasma citrulline volume of distribution (Vd)): 2.25 L
- Plasma citrulline elimination constant (Kel) [3]: 0.462 h⁻¹
